The source of these data is PubChem BioAssay (NCI).

Among the test systems are SNB-19 CNS; UACC-62 melanoma; OVCAR-4 ovarian; NCI-H226 lung; A549 NSCLC; COLO 205 colon; DU-145 prostate; OVCAR-5 ovarian; SK-MEL-5 melanoma; SK-MEL-2 melanoma.
Common to all, as to experiment: growth of human tumour cells (NCI), 48 h

Where “and” joins values, the source holds several entries; their conditions need not be identical. Identical values can stand only once.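 Step 1: Grow cells in 96-well plates. Step 2: Expose to compound for 48 hours at 5 concentrations. Step 3: Interpolate endpoints linearly; if unreached, use highest concentration. Here, GI50 denotes the concentration required for 50% inhibition of growth. TGI: total growth inhibition.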

For `Cc1ccc(-c2cc(O)c3nc4ccccc4n3c2)cc1`, the TGI in the assay with SNB-19 CNS, in the assay on UACC-62 melanoma, in the assay on OVCAR-4 ovarian, in the assay with NCI-H226 lung, in the assay on A549 NSCLC and with COLO 205 colon was over 100 µM in each case. This compound returned a TGI in the assay on DU-145 prostate of over 100 µM.

Regarding `CN1CN(c2ccccc2)C2(CCN(CCCCCCF)CC2)C1=O`, the TGI with OVCAR-5 ovarian is over 100 µM; in the assay with SNB-19 CNS it was over 100 µM; in the assay on UACC-62 melanoma, over 100 µM; in the assay on NCI-H226 lung it was over 100 µM; in the assay with A549 NSCLC, over 100 µM; in the assay on COLO 205 colon it was 47.3 µM. The TGI in the assay with DU-145 prostate and in the assay on SK-MEL-5 melanoma was over 100 µM each time.

On to `CC(=O)NNc1nc(C)c(C(=O)NNC(=O)C(=O)Nc2cccc(C(C)=O)c2)s1`, for which the TGI with OVCAR-5 ovarian is over 100 µM; with SNB-19 CNS, over 100 µM; with UACC-62 melanoma, 31.4 µM; in the assay on OVCAR-4 ovarian, 64.3 µM; in the assay with NCI-H226 lung, 62 µM; with A549 NSCLC, over 100 µM. Besides, the TGI in the assay with SK-MEL-2 melanoma, with COLO 205 colon and with SK-MEL-5 melanoma was over 100 µM in each case.

For `Cc1ccc(N(O)C(C)(C)C)cc1`, the TGI in the assay on OVCAR-5 ovarian, in the assay on SNB-19 CNS, in the assay with UACC-62 melanoma, in the assay with OVCAR-4 ovarian, in the assay on NCI-H226 lung and in the assay with A549 NSCLC was over 100 µM in each case. Besides, the TGI with SK-MEL-2 melanoma, with COLO 205 colon and in the assay with SK-MEL-5 melanoma was over 100 µM throughout.

In the case of `CC(C)(O)C1CC[C@]2(C)[C@H]3CC[C@@H]4[C@@]5(C)CCCC(C)(C)[C@@H]5CC[C@@]4(C)[C@]3(C)CC[C@@H]12` (some centres not stated), the TGI in the assay on OVCAR-5 ovarian, in the assay with SNB-19 CNS, in the assay on UACC-62 melanoma, in the assay on OVCAR-4 ovarian, in the assay with A549 NSCLC and in the assay with SK-MEL-2 melanoma was over 100 µM each time. In addition, the TGI with COLO 205 colon, in the assay with DU-145 prostate and with SK-MEL-5 melanoma was over 100 µM each time.

In the case of `Cc1cn(C2CC(CCCO)C(CO)O2)c(=O)[nH]c1=O` (configuration not stated), the TGI with OVCAR-5 ovarian, with SNB-19 CNS, in the assay with UACC-62 melanoma, in the assay with OVCAR-4 ovarian, with NCI-H226 lung and in the assay with A549 NSCLC was over 100 µM each time. Also, the TGI in the assay on SK-MEL-2 melanoma, in the assay with COLO 205 colon and in the assay on SK-MEL-5 melanoma was over 100 µM in each case. For the same compound, in the assay with NCI-H226 lung, the GI50 was > 100 µM and 18.4 µM.

For `COc1cccc(/C(Cl)=C(\C=O)c2cccc(OC)c2)c1`, the TGI in the assay on OVCAR-5 ovarian was determined as 38 µM; in the assay on SNB-19 CNS it was 38.2 µM; with UACC-62 melanoma, 18.8 µM; in the assay on OVCAR-4 ovarian, 55.3 µM; in the assay with NCI-H226 lung, 24.8 µM; in the assay with A549 NSCLC, 40.8 µM. Moreover, the TGI with SK-MEL-2 melanoma is 32.7 µM; in the assay with COLO 205 colon it was 24.2 µM; in the assay on SK-MEL-5 melanoma, 23.8 µM.

Turning to `CCCCCCCCCC(=O)N[C@@H](c1ccco1)[C@@H](O)C(=O)O[C@H]1C[C@@]2(O)[C@@H](OC(=O)c3ccccc3)[C@@H]3[C@]4(OC(C)=O)CO[C@@H]4C[C@H](O)[C@@]3(C)C(=O)[C@H](OC(C)=O)C(=C1C)C2(C)C`, the TGI in the assay on OVCAR-5 ovarian was 0.151 µM; in the assay with SNB-19 CNS, over 30.5 µM; with UACC-62 melanoma, 9.53 µM; with OVCAR-4 ovarian it was over 24.7 µM; in the assay on NCI-H226 lung, 9.53 µM; in the assay with A549 NSCLC, over 50 µM. The TGI in the assay with COLO 205 colon came to 0.0335 µM; with SK-MEL-5 melanoma, 2.25 µM.

`CCOC(=O)C(C)Sc1nnc(COc2ccccc2OC)n1-c1ccccc1` (configuration not stated): the TGI in the assay with OVCAR-5 ovarian, with SNB-19 CNS, in the assay on UACC-62 melanoma, in the assay on OVCAR-4 ovarian, with NCI-H226 lung and in the assay on A549 NSCLC was over 100 µM throughout. The TGI in the assay with SK-MEL-2 melanoma, in the assay on COLO 205 colon and with SK-MEL-5 melanoma was over 100 µM throughout.

As to `COC(=O)c1c(CC(Cc2ccc3c(c2)CCCC3)C(=O)OC)ccc2c1CCCC2` (configuration not stated), the TGI in the assay on OVCAR-5 ovarian is over 100 µM; in the assay with SNB-19 CNS, over 100 µM; in the assay on UACC-62 melanoma, over 100 µM; in the assay with OVCAR-4 ovarian, 45.1 µM; in the assay with A549 NSCLC, over 100 µM; in the assay on SK-MEL-2 melanoma, over 100 µM. Also, the TGI in the assay with COLO 205 colon, in the assay on DU-145 prostate and in the assay with SK-MEL-5 melanoma was over 100 µM each time.

`O=C1CC(C(OCc2ccccc2)C(OCc2ccccc2)C(COCc2ccccc2)OCc2ccccc2)CC(=O)N1` (configuration not stated): the TGI in the assay on OVCAR-5 ovarian, in the assay on SNB-19 CNS, with OVCAR-4 ovarian, with NCI-H226 lung, in the assay on A549 NSCLC and with COLO 205 colon was over 100 µM each time. For the same compound, the TGI in the assay on DU-145 prostate and in the assay with SK-MEL-5 melanoma was over 100 µM in each case.

As to `CC(C)(C)C(=O)OCC1OC(N=[N+]=[N-])C(OC(=O)C(C)(C)C)C(OC(=O)C(C)(C)C)C1OC(=O)C(C)(C)C` (configuration not stated), the TGI in the assay on OVCAR-5 ovarian, in the assay with SNB-19 CNS, in the assay on UACC-62 melanoma, in the assay on OVCAR-4 ovarian, in the assay on A549 NSCLC and with SK-MEL-2 melanoma was over 100 µM each time. Further, the TGI in the assay with COLO 205 colon and in the assay on SK-MEL-5 melanoma was over 100 µM each time.

As to `COC(=O)c1c(C)cccc1C1CN=NC12Cc1ccc(C)c(C)c1C2=O` (configuration not stated), the TGI is over 100 µM in the assay with OVCAR-5 ovarian; over 100 µM with SNB-19 CNS; 57.9 µM with UACC-62 melanoma; over 100 µM with OVCAR-4 ovarian; over 100 µM with NCI-H226 lung; over 100 µM in the assay with A549 NSCLC. Besides, the TGI with DU-145 prostate was over 100 µM.

Take `CCC(COC(=O)CC[C@@H](NC(=O)C(C)NC(=O)C(C)OC1C(O)C(CO)OC(OCc2ccccc2)C1NC(C)=O)C(N)=O)NC1c2ccccc2Nc2cccc([N+](=O)[O-])c21` (some centres not stated): the TGI in the assay on OVCAR-5 ovarian, in the assay on SNB-19 CNS, with UACC-62 melanoma, in the assay on OVCAR-4 ovarian, in the assay on NCI-H226 lung and with A549 NSCLC was over 100 µM in each case. In addition, the TGI with SK-MEL-2 melanoma, in the assay with COLO 205 colon and in the assay on SK-MEL-5 melanoma was over 100 µM throughout.

Turning to `O=c1c2ccccc2nc(-c2ccccc2)n1NC(=S)Nc1ccc(Cl)cc1`, the TGI with OVCAR-5 ovarian, in the assay with UACC-62 melanoma, with OVCAR-4 ovarian, in the assay with NCI-H226 lung, with A549 NSCLC and with SK-MEL-2 melanoma was over 100 µM each time. Besides, the TGI with COLO 205 colon and in the assay with SK-MEL-5 melanoma was over 100 µM each time.
